We go through three compounds from publication PMC7188855, “Nucleic acid recognition and antiviral activity of 1,4-substituted terphenyl compounds mimicking all faces of the HIV-1 Rev protein positively-charged α-helix” (Scientific Reports, 2020).

Like-named read-outs stand apart in the source and are kept apart here.

The target of experiment [1] is RRE subdomain IIB RNA hairpin IIBh. Kind of experiment: Fluorescence intensity binding to fluorescein-labelled IIBh hairpin. The arrangement: species or system HIV-1. The note with it: for IIB-DNA spec., Kd(IIBh)/Kd(IIBh+LTRd) / IIB-tRNA spec., Kd(IIBh)/Kd(IIBh+tRNA): low ionic strength, 10 mM sodium phosphate pH 6.6, uses Kd1. From the text: We next determined whether the terphenyl molecules blocked the interaction between Rev34–50 and subdomain IIB by binding to the RNA and, if so, whether they recognized subdomain IIB in a manner similar to the Rev34–50 α-helix. We first evaluated subdomain IIB association by measuring changes in the fluorescence intensity of a IIBh RNA hairpin construct containing a fluorescein probe attached to unpaired loop IIB residue U23 (Fig. 1D)[21],[22]. […] However, there were significant differences among the compounds.
These experiments measured association to IIBh-23fl or TARh-8fl RNA molecules labelled with fluorescein at extrahelical loop nucleotides U23 and U8, respectively (Fig. 1D), and were carried out under two different ionic conditions in a Victor X5 plate reader, using excitation and emission wavelengths of 485 and 520 nm, respectively. We also attempted to measure association to an alternative IIBh hairpin containing 2-aminopurine instead of adenine at unpaired loop IIB residue A19[21], but all terphenyls fluoresced at the excitation wavelength of this fluorophore. IIBh-23fl or TARh-8fl (at 100 nM concentration) was equilibrated for 5 minutes after each ligand addition in a buffer containing either 10 mM sodium phosphate pH 6.6 and 0.1 mM EDTA or 10 mM HEPES pH 7.5, 200 mM KCl and 2 mM MgCl2. In addition to the TARh specificity control, the RNA and DNA specificity of the IIBh interactions was assessed by duplicating the experiments in the presence of a 10-fold molar excess (1 μM) of either tRNA^Lys or DNA duplex LTRd. The equilibrium dissociation constants Kd were determined by fitting the fluorescence intensity curves with DYNAFIT[40]. We used one-site, two independent-sites and two interacting-sites binding models for all curves, and the best model was automatically selected by model discrimination analysis, except where indicated. The final graphs were plotted with Prism. All fluorescence intensity experiments were performed at least two times for each compound and condition.

Experiment [2] relates to RRE-Rev system (unspliced, single-spliced, multiple-spliced HIV-1 transcripts). Kind of experiment: RT-qPCR analysis of HIV-1 RNA splicing in MT-2 cells. The note with it: 24 and 48 hours post-infection, 100 μM; not statistically significant. The experiment is classed as cell-based. How it is done:
Given that splicing takes place in the nucleus, a blockage of the RRE-Rev system should reduce the levels of unspliced or single-spliced transcripts and increase the proportion of multiple-spliced species.
MT-2 cells were infected with a NL4.3 virus for 2 hours (10 ng/10^6 cells) and treated with two different concentrations of compounds 1a, 1d or 3c for 24, 48, 72 or 96 hours. The compound concentrations were chosen on the basis of the observed RRE-Rev IC50 and cellular EC50 values. Total cellular RNA was isolated, treated with DNase I and reverse-transcribed as previously described[21],[22]. Unspliced, single-spliced and multiple-spliced HIV-1 RNA transcripts were quantified by qPCR relative to a control obtained from untreated cells, using the primers described by Mohammadi et al.[48], and GAPDH as an endogenous control.
(In general: Quantitative PCR measures a nucleic acid by following its amplification.)

Another experiment deals with RRE subdomain IIB (IIBh). Kind of experiment: Isothermal titration calorimetry with IIBh. Type of experiment: binding, HIV-1. The note with it: 25 °C; 10 mM sodium phosphate pH 7.4, 0.1 mM EDTA; read-out: equilibrium dissociation constant, RRE subdomain IIB (ITC). How it is done: (§1) These experiments were performed at 25 °C in MicroCal PEAQ-ITC or Nano-ITC microcalorimeters, and the data was subsequently analysed with MicroCal or Nanoanalyze software, respectively. All species were dissolved in aqueous solutions containing 10 mM sodium phosphate (pH 7.4 or 8.2) and 0.1 mM EDTA. For the IIBh:1a interaction the pH was 7.4, and 10 or 20 μM solutions of IIBh in the sample cell were titrated with 19 injections of 350 or 500 μM solutions of 1a. […]. […] For the DNAd:1a interaction, the pH was 8.2, and 800 or 900 μM solutions of 1a were titrated into 20 μM solutions of DNAd duplex in the sample cell with 19 injections of 2 µL. In both cases, the titration experiments were repeated three times, and the resulting association curves were fitted using a model with a single set of binding sites.

The next experiment deals with DNA duplex DNAd. Description: Isothermal titration calorimetry with DNAd duplex. Type of experiment: binding. The note with it: 25 °C, 10 mM sodium phosphate pH 8.2, 0.1 mM EDTA, read-out: equilibrium dissociation constant, related DNA duplex (ITC). How it is done:
as §1
A general note: ITC needs no label: the signal is the heat of the interaction.

For experiment [3], the system named is HIV-1 reverse transcription. Kind of experiment: qPCR quantification of early and late HIV-1 reverse transcripts in MT-2 cells. Type of experiment: cell-based. The note with it: MT-2 cells infected with NL4.3 for 5 hours. How it is done:
MT-2 cells were pre-treated with two different concentrations of terphenyl molecules 1a, 1d or 3c, selected on the basis of the observed RRE-Rev IC50 and cellular EC50 values, and infected with NL4.3 wild-type HIV-1 for 5 hours. Total genomic DNA was isolated with a QIAamp DNA blood mini kit (Qiagen) and quantified by spectrophotometry. Early and late viral DNAs were quantified by qPCR as previously described. qPCR was performed in triplicate in a StepOne Real-Time PCR system using standard cycling conditions. Serial dilutions of genomic DNA from the 8E5 cell line, which contain a single integrated copy of HIV-1[43], were used as standard curve. The CCR5 gene was used as an endogenous control.

The mark [4] stands for this setting: 10 mM sodium phosphate pH 6.6, 0.1 mM EDTA, two-site model, read-out: Kd (IIBh), first-site Kd1.
[5] abbreviates: 10 mM sodium phosphate pH 6.6, 0.1 mM EDTA, two-site model, read-out: Kd (IIBh), second-site Kd2 (in brackets).
[6] abbreviates: 10-fold molar excess DNA duplex LTRd, 10 mM sodium phosphate pH 6.6, 0.1 mM EDTA, one-site fit, approximate, read-out: Kd (IIBh+LTRd).
Setting [7] is: 10-fold molar excess LTRd, 10 mM HEPES pH 7.5, 200 mM KCl, 2 mM MgCl2, read-out: Kd (IIBh+LTRd), one-site or first-site Kd1, Table S2.
[8] abbreviates: 10-fold molar excess tRNALys, 10 mM HEPES pH 7.5, 200 mM KCl, 2 mM MgCl2, one-site fit, approximate, read-out: Kd (IIBh+tRNA), Table S2.
Setting [9] is: 10-fold molar excess tRNALys, 10 mM sodium phosphate pH 6.6, 0.1 mM EDTA, one-site fit, approximate, read-out: Kd (IIBh+tRNA).
[10] abbreviates: higher ionic strength, 10 mM HEPES pH 7.5, 200 mM KCl, 2 mM MgCl2.
The mark [11] stands for this setting: higher ionic strength, 10 mM HEPES pH 7.5, 200 mM KCl, 2 mM MgCl2, read-out: Kd (IIBh), first-site Kd1, Table S2.
[12] abbreviates: higher ionic strength, 10 mM HEPES pH 7.5, 200 mM KCl, 2 mM MgCl2, read-out: Kd (IIBh), second-site Kd2 (in brackets), Table S2.

On to `Cc1cc(-c2cc(CCN)ccc2CCN)c(C)cc1-c1cc(CCN)ccc1CCN` [Compound 1d], for which the Kd is 0.87 µM in experiment [1] (setting [4]); 3.5 µM in experiment [1] (setting [5]); 2.2 µM in experiment [1] (setting [6]); 3.7 µM in experiment [1] (setting [7]); 54 µM in experiment [1] (10-fold molar excess LTRd, 10 mM HEPES pH 7.5, 200 mM KCl, 2 mM MgCl2, read-out: Kd (IIBh+LTRd), second-site Kd2 (in brackets), Table S2); 42 µM in experiment [1] (setting [8]). Further, the Kd turned out to be 7.8 µM in experiment [1] (setting [9]), 7.6 µM in experiment [1] (setting [11]) and 30 µM in experiment [1] (setting [12]). The “IIB-DNA spec., Kd(IIBh)/Kd(IIBh+LTRd), Table S2” value in experiment [1] (setting [10]) was 2.1. For the same compound, the “IIB-tRNA spec., Kd(IIBh)/Kd(IIBh+tRNA), Table S2” value in experiment [1] (setting [10]) was 0.18. Further, the “IIB-DNA spec., Kd(IIBh)/Kd(IIBh+LTRd)” value in experiment [1] is reported as 0.40. Moreover, the “IIB-tRNA spec., Kd(IIBh)/Kd(IIBh+tRNA)” value in experiment [1] was 0.11. In addition, the “pattern of unspliced, single-spliced and multiple-spliced viral transcripts” value in experiment [2] is “clearest patterns consistent with RRE-Rev inhibition”.

As for `COc1cc(CCN)c(-c2cc(C)c(-c3cc(CCN)c(OC)cc3CCN)cc2C)cc1CCN` [Compound 1a], the Kd in experiment [1] (setting [4]) turned out to be 0.98 µM; in experiment [1] (setting [5]), 5.9 µM; in experiment [1] (setting [6]) it was 2.4 µM; in experiment [1] (setting [7]), 15 µM; in experiment [1] (setting [9]), 28 µM; in experiment [1] (setting [11]), 4.4 µM. Besides, the Kd in experiment [1] (setting [12]) was 18 µM; at RRE subdomain IIB (IIBh), 0.5 µM; at DNA duplex DNAd it was 6.3 µM. In addition, the “IIB-DNA spec., Kd(IIBh)/Kd(IIBh+LTRd), Table S2” value in experiment [1] (setting [10]) stood at 0.29. Moreover, in experiment [1], the “IIB-DNA spec., Kd(IIBh)/Kd(IIBh+LTRd)” value is 0.41. In experiment [1], the “IIB-tRNA spec., Kd(IIBh)/Kd(IIBh+tRNA)” value is 0.035. Besides, the “diminished levels of early viral DNA sequences” value in experiment [3] was determined as 25%.

As to `Cc1cc(-c2cc(CCN)ccc2CCN)c(C)cc1-c1cccc(CCN)c1` [Compound 3c], the Kd was 6.5 µM in experiment [1] (setting [4]); 26 µM in experiment [1] (setting [5]); 8.1 µM in experiment [1] (setting [6]); greater than 50 µM in experiment [1] (setting [7]); greater than 50 µM in experiment [1] (setting [8]); 5.2 µM in experiment [1] (setting [9]). In addition, the Kd in experiment [1] (setting [11]) is greater than 50 µM. Also, the “IIB-DNA spec., Kd(IIBh)/Kd(IIBh+LTRd)” value in experiment [1] is 0.80. Moreover, the “IIB-tRNA spec., Kd(IIBh)/Kd(IIBh+tRNA)” value in experiment [1] was 1.3. In experiment [3], the “diminished levels of early viral DNA sequences” value turned out to be 25%.
